According to patent US20090258097A1, “EXTRACTS AND COMPOUNDS FROM "AGAPANTHUS AFRICANUS" AND THEIR USE AS BIOLOGICAL PLANT PROTECTING AGENTS” (AGRARFORUM AG, priority 2005, published 2009):

Experiments:
[1] = tested on: Fusarium oxysporum; assay: In vitro mycelial growth inhibition (agar dilution); type: cell-based; conditions: for concentration showing strong antifungal activity: purified compounds
[2] = tested on: Sporisorium sorghi; assay: Sorghum covered kernel smut field trial (seed treatment); type: in vivo; conditions: extract 2.0 g/l, Thiram 0.25% (w/w)
[3] = tested on: Sporisorium cruentum; assay: Sorghum loose kernel smut field trial (seed treatment); type: in vivo; conditions: extract 2.0 g/l, Thiram 0.25% (w/w)
[4] = pure compounds from the most active P-TLC root fraction, following acidification

| Compound | % mycelial growth inhibition of F. oxysporum ([1]; pure compound from the most active P-TLC aerial plant part fraction) | % mycelial growth inhibition of F. oxysporum [1, 4] | concentration showing strong antifungal activity [1] | % mean smut incidence [2] | Yield (ton ha^−1) [2] | % mean smut incidence [3] | Yield (ton ha^−1) [3] |
| --- | --- | --- | --- | --- | --- | --- | --- |
| 3-[{O-β-D-glucopyranosyl-(1″-3′)-α-L-rhamnosyl-(1″-2′)}-β-D-glucopyranosyloxy]agapanthegenin [Compound 1] | 100% | 100% | approximately 125 μg/ml |  |  |  |  |
| CC(=O)Oc1cc(OC(C)=O)c2c(c1)OC(c1ccc(OC(C)=O)c(OC(C)=O)c1)CC2=O (centres unmarked) [Compound 8, 5,7,3′4′-tetra-O-acetylflavanone] |  | 93% | about 625 μg/ml |  |  |  |  |
| CC(=O)Oc1ccc(/C=C/C(=O)c2ccc(OC(C)=O)cc2OC(C)=O)cc1 [Compound 9, trans-4,2′,4′-Tri-O-acetylchalcone] |  | 97% | about 625 μg/ml |  |  |  |  |
| CN(C)C(=S)SSC(=S)N(C)C [Thiram] |  |  |  | 0b % | 2.6ab ton ha^−1 | 0b % | 2.1ab ton ha^−1 |
